From PubChem BioAssay (NCI) come the findings set out here.

Molecules are shown by their SMILES.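 Briefly, cells in 96-well plates were exposed to five compound concentrations for 48 h, and endpoints were estimated by linear interpolation. GI50 is the concentration that inhibits growth by half. The concentration for full growth arrest is given as TGI.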

What all share (assay): NCI anticancer screen, dose series, 48 h
Experiment [1] concerns ACHN renal.
Experiment [2] has as its system EKVX NSCLC.
For experiment [3], the system named is HCT-116 colon.
Experiment [4] has as its system HCT-15 colon.
For experiment [5], the system named is HT29 colon.
The subject of experiment [6] is KM12 colon.
For experiment [7], the system named is NCI-H460 lung.
The subject of experiment [8] is SN12C renal.
Experiment [9] deals with UACC-62 melanoma.
Experiment [10] has as its system MOLT-4 leukemia.

Consider `O=C(O)c1ccc([N+]2=Cn3c(nc4ccccc43)C2)cc1`, for which the TGI in experiment [1], in [2], in [3], in experiment [4], in [5] and in experiment [6] was > 100 µM throughout. Further, the TGI in experiment [7], in experiment [8] and in [9] was > 100 µM in each case.
Turning to `O=C(O)c1cc2cc(c1)N=Cc1ccccc1OCc1cccc(n1)COc1ccccc1C=N2`, the TGI in experiment [1], in [2], in experiment [3], in experiment [4], in [5] and in experiment [6] was > 25 µM throughout. Besides, the TGI in experiment [10], in experiment [7], in experiment [8] and in experiment [9] was > 25 µM throughout.
As to `CC[C@H](Nc1nc(N)nc(C)c1C#N)c1nc2cccc(NCc3ccc(C(=O)NO)cc3)c2c(=O)n1-c1ccccc1`, the GI50 in experiment [1] was 1.94 µM; in [2], 2.1 µM; in experiment [3], 1.82 µM; in experiment [4], 2.29 µM; in [5] it was 1.82 µM; in experiment [6], 1.7 µM. The GI50 in experiment [10] is 2.34 µM; in experiment [7] it was 1.85 µM. Also, the TGI worked out at 4.67 µM in experiment [1]; 6.84 µM in experiment [2]; 4.34 µM in experiment [3]; 6.25 µM in experiment [4]; 4.88 µM in experiment [5]; 3.29 µM in [6]. Further, the TGI in [10] is > 100 µM; in experiment [7], 4.76 µM.
`O=C1Nc2ccccc2S/C1=C\c1ccccc1C(F)(F)F`: the TGI in experiment [1], in experiment [2], in experiment [3], in experiment [4], in experiment [5] and in experiment [6] was > 100 µM each time. For the same molecule, the TGI in [10], in experiment [7], in experiment [8] and in experiment [9] was > 100 µM throughout.
As to `CC(=O)O[C@H]1CC[C@@]2(C)C(=CC[C@@H]3[C@@H]2CC[C@]2(C)Nc4c(cnn4S(C)(=O)=O)C[C@@H]32)C1`, the TGI is > 100 µM in experiment [4]; 57 µM in experiment [5]; > 100 µM in experiment [6]; 47.4 µM in [10]; > 100 µM in [7]; > 100 µM in [8]. The TGI in experiment [9] is > 100 µM.
In the case of `Cc1ccc([N+](=O)[O-])cc1NC(=O)C(=O)C(C(=O)c1ccccc1F)C1OC(=O)c2ccccc21` (centres undefined), the TGI in experiment [1] was > 100 µM; in experiment [2] it was > 100 µM; in [3], 91.8 µM; in experiment [4], > 100 µM; in experiment [5], > 100 µM; in [6], > 100 µM. The TGI in [10], in experiment [7], in experiment [8] and in [9] was > 100 µM each time.
Take `N=c1nc2n(cc1F)[C@@H]1O[C@H](CO)[C@@H](O)[C@@H]1O2`: the TGI in experiment [1] is > 34.4 µM; in [2] it was > 100 µM; in [3] it was > 100 µM; in experiment [4] it was > 100 µM; in experiment [5], > 100 µM; in experiment [6] it was > 100 µM. The TGI in [10] is 18.9 µM; in [7], > 36 µM; in [8] it was > 100 µM; in experiment [9], > 100 µM.
Regarding `NC(=S)Nc1cc(Cl)ccc1Cl`, the TGI in experiment [1], in experiment [2], in [3], in experiment [4], in experiment [5] and in experiment [6] was > 100 µM each time. Moreover, the TGI in [10], in experiment [7], in [8] and in experiment [9] was > 100 µM in each case.
As for `CCOC(=O)Nc1cc2c(c(N)n1)N=C(c1ccccc1)[C@H](C)N2`, the TGI in experiment [1] was 55 µM; in experiment [2] it was > 100 µM; in [3], 0.0173 µM; in experiment [4] it was 17.3 µM; in experiment [10], 14.5 µM; in experiment [7] it was 0.0464 µM. Also, the TGI in experiment [8] was > 100 µM; in experiment [9], 21.2 µM. Moreover, the GI50 in [4] and in experiment [8] was < 0.0001 µM in each case.
As to `Oc1ccc2oc3c(O)c4ccccc4cc3c2c1`, the TGI turned out to be 21 µM in experiment [1]; 4.16 µM in experiment [3]; 21.3 µM in [4]; 48.6 µM in experiment [5]; 10.5 µM in experiment [6]; 11.9 µM in experiment [10]. The TGI is 53.9 µM in [7], 8.32 µM in experiment [8] and 1.67 µM in experiment [9].
For the molecule `O=[N+]([O-])c1ccc2c(c1)Nc1c3ccccc3nc3cccc-2c13`, the TGI in [1] was > 60.5 µM; in [2] it was 48.7 µM; in experiment [3], 28.8 µM; in [4] it was 81.2 µM; in experiment [5], > 51.6 µM; in experiment [6] it was > 100 µM. For the same molecule, the TGI in [10] was 34.6 µM; in [7] it was 12.5 µM; in [8], > 80 µM; in experiment [9], 18.1 µM.
`Cc1ccc(C[P+]2(c3ccccc3)CCCCC2)cc1`: the TGI in [1], in experiment [2], in [3], in experiment [4], in experiment [5] and in experiment [6] was > 100 µM throughout. For the same molecule, the TGI is > 100 µM in experiment [10], > 100 µM in experiment [7], > 100 µM in [8] and 66.2 µM in experiment [9].
With `Oc1c2c(c3c4c1N=CC=4CCN=3)-c1c(Br)cc(Br)cc1CCN2`, the TGI came to 17.4 µM in experiment [2]; 4.47 µM in experiment [3]; 15.4 µM in experiment [4]; 7.66 µM in experiment [5]; 9.21 µM in experiment [6]; 12 µM in experiment [7]. In addition, the TGI worked out at 5.86 µM in [8] and 2.77 µM in experiment [9].
